As a reminder, the IC50 is the concentration needed to halve the response being measured. A high value points to weaker potency in that assay.

For test [1], the system named is SW480. Kind of test: Antiproliferative activity against human SW480 cells after 72 hrs by MTT method. The class given is functional, cell-based. The conditions noted are these: SW480, 72 h. (Tetrazolium assays rely on reduction of a dye to a coloured formazan, in cell work by metabolically active cells.)
The nature of test [2]: Antiproliferative activity against human HCCLM7 cells after 72 hrs by MTT method. The test is classed as functional, cell-based. As to conditions: HCCLM7, 72 h.
Test [3] has as its system HEp-2. As to the kind of experiment: Antiproliferative activity against human Hep2 cells after 72 hrs by MTT method. The class given is functional, cell-based. The conditions noted are these: HEp-2, 72 h.
Test [4] can be described thus: cells. The class given is functional, cell-based. As to conditions: Homo sapiens, MDA-MB-435S, 72 h.
Description: Antiproliferative activity against human MDA-MB-435S cells after 72 hrs by MTT method
The test system of test [5] is HEp-2. Kind of test: Cell cycle arrest in Hep2 cells assessed as accumulation at G0/G1 phase at 5.7 uM after 24 hrs. The class given is functional, Homo sapiens.
Test [6] relates to HEp-2. Kind of test: Cell cycle arrest in Hep2 cells assessed as accumulation at S phase at 5.7 uM after 48 hrs. The test is classed as functional, Homo sapiens.
In test [7] the test system is HEp-2. Kind of test: Cell cycle arrest in Hep2 cells assessed as accumulation at […] phase at 5.7 uM after 36 hrs. The class given is functional, Homo sapiens.
In test [8] the test system is HEp-2. Kind of test: Cell cycle arrest in Hep2 cells assessed as accumulation at S phase at 5.7 uM after 24 hrs. The test is classed as functional, Homo sapiens.
For test [9], the system named is HEp-2. As to the kind of experiment: Cell cycle arrest in Hep2 cells assessed as accumulation at G0/G1 phase at 5.7 uM after 48 hrs. The test is classed as functional, Homo sapiens.
Test [10] has as its system HEp-2. As to the kind of experiment: Cell cycle arrest in Hep2 cells assessed as accumulation at subG0 phase at 5.7 uM after 24 hrs. The class given is functional, Homo sapiens.
In test [11] the test system is HEp-2. As to the kind of experiment: Cell cycle arrest in Hep2 cells assessed as accumulation at subG0 phase at 5.7 uM after 36 hrs. The test is classed as functional, Homo sapiens.
The subject of test [12] is HEp-2. Kind of test: Cell cycle arrest in Hep2 cells assessed as accumulation at G0/G1 phase at 5.7 uM after 36 hrs. The class given is functional, Homo sapiens.
For test [13], the system named is HEp-2. As to the kind of experiment: Cell cycle arrest in Hep2 cells assessed as accumulation at […] phase at 5.7 uM after 48 hrs. The test is classed as functional, Homo sapiens.
The test system of test [14] is HEp-2. Kind of test: Cell cycle arrest in Hep2 cells assessed as accumulation at G2/M phase at 5.7 uM after 24 hrs. The class given is functional, Homo sapiens.
Test [15] concerns HEp-2. As to the kind of experiment: Cell cycle arrest in Hep2 cells assessed as accumulation at subG0 phase at 5.7 uM after 48 hrs. The test is classed as functional, Homo sapiens.
The test system of test [16] is HEp-2. As to the kind of experiment: Cell cycle arrest in Hep2 cells assessed as accumulation at S phase at 5.7 uM after 36 hrs. The test is classed as functional, Homo sapiens.
In test [17] the test system is HEp-2. As to the kind of experiment: Cell cycle arrest in Hep2 cells assessed as accumulation at G2/M phase at 4.7 uM after 48 hrs. The test is classed as functional, cell-based, Homo sapiens.
Test [18] deals with HEp-2. As to the kind of experiment: Cell cycle arrest in Hep2 cells assessed as accumulation at G2/M phase at 4.7 uM after 24 hrs. The test is classed as functional, Homo sapiens.
In test [19] the test system is HEp-2. As to the kind of experiment: Cell cycle arrest in Hep2 cells assessed as accumulation at S phase at 4.7 uM after 24 hrs. The test is classed as functional, Homo sapiens.
Test [20] has as its system HEp-2. As to the kind of experiment: Cell cycle arrest in Hep2 cells assessed as accumulation at S phase at 4.7 uM after 36 hrs. The class given is functional, Homo sapiens.
The test system of test [21] is HEp-2. As to the kind of experiment: Cell cycle arrest in Hep2 cells assessed as accumulation at subG0 phase at 4.7 uM after 24 hrs. The test is classed as functional, Homo sapiens.
Test [22] relates to HEp-2. As to the kind of experiment: Cell cycle arrest in Hep2 cells assessed as accumulation at subG0 phase at 4.7 uM after 48 hrs. The class given is functional, Homo sapiens.
The test system of test [23] is HEp-2. Kind of test: Cell cycle arrest in Hep2 cells assessed as accumulation at subG0 phase at 4.7 uM after 36 hrs. The test is classed as functional, Homo sapiens.
Test [24] has as its system HEp-2. Kind of test: Cell cycle arrest in Hep2 cells assessed as accumulation at G0/G1 phase at 4.7 uM after 36 hrs. The test is classed as functional, Homo sapiens.
Test [25] concerns HEp-2. Kind of test: Cell cycle arrest in Hep2 cells assessed as accumulation at G2/M phase at 4.7 uM after 36 hrs. The class given is functional, Homo sapiens.
Test [26] has as its system HEp-2. As to the kind of experiment: Cell cycle arrest in Hep2 cells assessed as accumulation at S phase at 4.7 uM after 48 hrs. The class given is functional, Homo sapiens.
Test [27] has as its system HEp-2. As to the kind of experiment: Cell cycle arrest in Hep2 cells assessed as accumulation at G0/G1 phase at 4.7 uM after 24 hrs. The class given is functional, Homo sapiens.
In test [28] the test system is HEp-2. As to the kind of experiment: Cell cycle arrest in Hep2 cells assessed as accumulation at G0/G1 phase at 4.7 uM after 48 hrs. The class given is functional, Homo sapiens.

For the molecule `Cc1nnc(Sc2coc3ccccc3c2=O)o1`, the half-inhibitory concentration (IC50) in [1], in test [2], in test [3] and in test [4] was more than 50 µM throughout.
For the molecule `Cc1cc(C)nc(Sc2coc3ccccc3c2=O)n1`, the IC50 in test [1], in test [2], in test [3] and in test [4] was more than 50 µM each time.
As for `O=C1/C(=C/N2CCCCC2)Oc2ccccc21`, the concentration for half-maximal inhibition (IC50) in test [1] was more than 50 µM; in [2] it was more than 50 µM; in [3] it was more than 50 µM; in test [4], 47.8 µM.
`O=c1c(Sc2nc3ccccc3o2)coc2ccccc12`: the IC50 was 36.4 µM in test [1], more than 50 µM in test [2], 29.6 µM in test [3] and 26.1 µM in test [4].
Regarding `O=c1[nH]cc(F)c(=O)[nH]1` [FLUOROURACIL], the 50% inhibitory concentration (IC50) in test [1] stood at 8.1 µM; in test [2] it was 18.6 µM; in test [3] it was 129 µM; in test [4], 14.5 µM.
For `CN1CCN(/C=C2\Oc3ccccc3C2=O)C(c2ccccc2)C1` (stereo not given), the IC50 in test [1], in test [2], in test [3] and in test [4] was more than 50 µM each time.
For `CN1CCN(/C=C2\Oc3ccccc3C2=O)CC1`, the concentration for half-maximal inhibition (IC50) in test [1] was more than 50 µM; in test [2], more than 50 µM; in test [3], more than 50 µM; in [4], 40.3 µM.
Consider `Cc1nnc(Sc2coc3ccccc3c2=O)s1`, for which the IC50 is more than 50 µM in [1], more than 50 µM in [2], 40.2 µM in test [3] and more than 50 µM in test [4].
Regarding `O=C1/C(=C/N2CCN(Cc3ccccc3)CC2)Oc2ccccc21`, the Activity in test [5] worked out at 44.87%; in [6], 17.83%; in test [7], 17.46%; in [8], 22.98%; in [9], 75.85%; in [10], 4.69%. Besides, the Activity in [11] amounted to 4.93%; in test [12], 58.7%; in [13], 6.32%; in test [14], 32.14%; in test [15] it was 18.2%; in [16], 23.84%. The IC50 stood at 6.6 µM in [1], 9.6 µM in test [2], 5.7 µM in test [3] and 7.6 µM in test [4].
As to `O=c1c(Sc2nc3ccccc3s2)coc2ccccc12`, the IC50 in test [1] was 45.2 µM; in test [2], more than 50 µM; in [3] it was 31.3 µM; in [4], 17.1 µM.
With `Nc1nnc(Sc2coc3ccccc3c2=O)s1`, the concentration for half-maximal inhibition (IC50) in test [1] is more than 50 µM; in test [2], more than 50 µM; in test [3] it was 47.7 µM; in test [4], more than 50 µM.
For the molecule `O=C1/C(=C/N2CCN(c3ccccc3)CC2)Oc2ccccc21`, the IC50 in [1] is 36.4 µM; in test [2], 45.1 µM; in test [3] it was 27.7 µM; in [4], 25.1 µM.
The like results for `O=c1c(Sc2nc3ccccc3[nH]2)coc2ccccc12` were, in that order, more than 50 µM, more than 50 µM, 42.6 µM and 30.3 µM.
Take `O=C1/C(=C/N2CCN(CC(c3ccc(F)cc3)c3ccc(F)cc3)CC2)Oc2ccccc21`: the Activity in [17] came out at 5.41%; in [18], 19.09%; in [19], 25.01%; in [20], 18.45%; in [21], 0%; in [22], 16.46%. Besides, the Activity in test [23] was determined as 5.55%; in test [24], 63.03%; in [25], 18.52%; in test [26], 20.89%; in [27] it was 55.9%; in [28], 73.71%. Further, the half-maximal inhibitory concentration (IC50) came to 13.1 µM in [1], 12.1 µM in test [2], 4.7 µM in test [3] and 4.1 µM in test [4].

Source of the values: ChEMBL document CHEMBL1149599, “Design, syntheses, and antitumor activity of novel chromone and aurone derivatives” (Bioorg Med Chem, 2007).
